Source: BindingDB's records for doi:10.1016/j.bioorg.2016.07.010 (Universiti Teknologi Mara (Uitm), 2016)

Target: Thymidine phosphorylase (Escherichia coli O45:K1 (strain S88 / ExPEC), UniProt B7MNI9)
Assay: Thymidine Phosphorylase Assay
Conditions: pH 7.4; 25 °C
Description: The Thymidine phosphorylase/PD-ECGF (E. coli) activity was determined by measuring the absorbance at 290 nm spectrophotometrically. In brief, total reaction mixture of 200 uL contained 145 uL of potassium phosphate buffer (pH 7.4), 30 uL of enzyme (E. coli) at concentration 0.05 and 0.002 U, respectively, were incubated with 5 uL of test materials for 10 min at 25 °C in microplate reader. After incubation, preread at 290 nm was taken to deduce the absorbance of substrate particles. Substrate (20 uL, 1.5 mM), was dissolved in potassium phosphate buffer, was immediately added to plate and continuously read after 10, 20, and 30 min in microplate reader (spectra max, molecular devices, CA, USA). All assays were performed in triplicate.

Chain of Thymidine phosphorylase (B7MNI9 whole entry): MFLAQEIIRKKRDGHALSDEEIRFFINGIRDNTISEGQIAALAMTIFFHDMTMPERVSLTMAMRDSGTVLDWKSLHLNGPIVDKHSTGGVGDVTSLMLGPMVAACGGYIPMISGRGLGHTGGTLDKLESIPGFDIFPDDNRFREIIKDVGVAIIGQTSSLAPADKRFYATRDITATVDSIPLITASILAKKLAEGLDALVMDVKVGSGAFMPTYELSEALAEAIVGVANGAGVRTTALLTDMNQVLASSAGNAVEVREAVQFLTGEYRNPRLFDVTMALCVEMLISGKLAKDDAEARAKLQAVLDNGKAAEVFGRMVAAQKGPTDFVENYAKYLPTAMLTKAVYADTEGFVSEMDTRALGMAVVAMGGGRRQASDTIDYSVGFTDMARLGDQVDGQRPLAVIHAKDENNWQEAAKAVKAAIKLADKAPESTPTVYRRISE

Compound: O=c1[nH]c(=O)c2cc[nH]c2[nH]1 [1,7-Dihydro-pyrrolo[2,3-d]pyrimidine-2,4-dione]
- IC50: 38.7 µM

Compound: Clc1ccccc1/C=N/Nc1cnc2ccccc2n1 [(E)-2-(2-(2-chlorobenzylidene)hydrazinyl)quinoxaline (4)]
- IC50: 37.6 µM

Compound: Fc1ccccc1/C=N/Nc1cnc2ccccc2n1 [(E)-2-(2-(2-fluorobenzylidene)hydrazinyl)quinoxaline (1)]
- IC50: 33.6 µM

Compound: Clc1cccc(/C=N/Nc2cnc3ccccc3n2)c1 [(E)-2-(2-(3-chlorobenzylidene)hydrazinyl)quinoxaline (5)]
- IC50: 93.5 µM

Compound: Fc1cccc(/C=N/Nc2cnc3ccccc3n2)c1 [(E)-2-(2-(3-fluorobenzylidene)hydrazinyl)quinoxaline (2)]
- IC50: 66.1 µM

Compound: Fc1ccc(/C=N/Nc2cnc3ccccc3n2)cc1 [(E)-2-(2-(4-fluorobenzylidene)hydrazinyl)quinoxaline (3)]
- IC50: 58.1 µM

Compound: C(=N\Nc1cnc2ccccc2n1)/c1c[nH]c2ccccc12 [(E)-2-(2-((1H-indol-3-yl)methylene)hydrazinyl)quinoxaline (27)]
- IC50: 84.3 µM

Compound: Oc1ccc(O)c(/C=N/Nc2cnc3ccccc3n2)c1 [(E)-2-((2-(quinoxalin-2-yl)hydrazono)methyl)benzene-1,4-diol (16)]
- IC50: 35.5 µM

Compound: Oc1ccccc1/C=N/Nc1cnc2ccccc2n1 [(E)-2-((2-(quinoxalin-2-yl)hydrazono)methyl)phenol (28)]
- IC50: 37.2 µM

Compound: COc1ccc(/C=N/Nc2cnc3ccccc3n2)cc1O [(E)-2-methoxy-5-((2-(quinoxalin-2-yl)hydrazono)methyl)phenol (21)]
- IC50: 46.9 µM

Compound: Oc1cccc(/C=N/Nc2cnc3ccccc3n2)c1O [(E)-3-((2-(quinoxalin-2-yl)hydrazono)methyl)benzene-1,2-diol (14)]
- IC50: 15.4 µM

Compound: Oc1cccc(/C=N/Nc2cnc3ccccc3n2)c1 [(E)-3-((2-(quinoxalin-2-yl)hydrazono)methyl)phenol (12)]
- IC50: 63.2 µM

Compound: Oc1ccc(/C=N/Nc2cnc3ccccc3n2)cc1O [(E)-4-((2-(quinoxalin-2-yl)hydrazono)methyl)benzene-1,2-diol (17)]
- IC50: 8.6 µM

Compound: Oc1ccc(/C=N/Nc2cnc3ccccc3n2)c(O)c1 [(E)-4-((2-(quinoxalin-2-yl)hydrazono)methyl)benzene-1,3-diol (15)]
- IC50: 33.4 µM

Compound: Oc1ccc(/C=N/Nc2cnc3ccccc3n2)cc1 [(E)-4-((2-(quinoxalin-2-yl)hydrazono)methyl)phenol (13)]
- IC50: 48.6 µM

Compound: COc1ccc(O)c(/C=N/Nc2cnc3ccccc3n2)c1 [(E)-4-methoxy-2-((2-(quinoxalin-2-yl)hydrazono)methyl)phenol (24)]
- IC50: 36.3 µM

Compound: Oc1cc(O)c(/C=N/Nc2cnc3ccccc3n2)cc1O [(E)-5-((2-(quinoxalin-2-yl)hydrazono)methyl)benzene-1,2,4-triol (18)]
- IC50: 3.2 µM

Compound: Oc1cc(O)c(/C=N/Nc2cnc3ccccc3n2)c(O)c1 [(E)-5-((2-(quinoxalin-2-yl)hydrazono)methyl)benzene-2,4,6-triol (19)]
- IC50: 9.1 µM

Compound: COc1ccc(/C=N/Nc2cnc3ccccc3n2)c(O)c1 [(E)-5-methoxy-2-((2-(quinoxalin-2-yl)hydrazono)methyl)phenol (20)]
- IC50: 34.4 µM
